{"source": "patent US20100297042A1", "about": "“Cosmetic Compositions and Methods Comprising Rhodiola Rosea” (priority 2004, published 2010)", "test_system": "living skin equivalents (LSE)", "test": "TT dimer immunostaining (DNA damage/repair) in UVB-irradiated living skin equivalents", "type": "cell-based", "details": "pre-treated 0.01% (PBS) 18 hours; 24 hours after 175 mJ of UVB", "description": "Excised portions (8 mm) are taken from living skin equivalents (LSE) and cultured over transwell membrane plates. These excised portions are pre-treated with rosavin or salidroside at 0.01% (PBS) for 18 hours. After the […], these excised portions are UVB-irradiated at 0 and 175 mJ/cm^2. One set of LSEs is immediately fixed in formalin to determine TT dimer formation (DNA damage). Following a 24-hour post-incubation, another set of skin equivalents is fixed in formalin. These samples are then prepared for TT dimer immunostaining. Sections are then evaluated using a microscope at 400× magnification. A section is selected from each sample and TT dimer containing cells are evaluated. DNA damage is measured by examining TT dimer stained cells immediately after UVB irradiation. DNA repair (TT dimer removal) in UVB-irradiated LSEs is determined by comparing the levels of TT dimer at 0 hr (immediately after UVB) with the levels of TT dimer at 24 hours (24 hours after UVB).", "data": [{"smiles": "OC[C@H]1O[C@@H](OCCc2ccc(O)cc2)[C@H](O)[C@@H](O)[C@@H]1O", "note": "[salidroside, hydroxyphenylethanol-2-D-glucopyranoside]", "values": [{"measurement": "TT dimer levels", "result": 12, "unit": "%"}]}, {"smiles": "O[C@@H]1[C@@H](O)[C@@H](OC/C=C/c2ccccc2)O[C@H](CO[C@@H]2OC[C@H](O)[C@H](O)[C@H]2O)[C@H]1O", "note": "[rosavin, cinnamyl alcohol vicyanoside rosavin]", "values": [{"measurement": "TT dimer levels", "result": 7, "unit": "%"}]}]}
